Results from US12324813B2, “Method and pharmaceutical composition for rescuing retinal degeneration” (Taipei Veterans General Hospital, priority 2023, dated 2025).
“Also recorded” adds a separate entry of the source.

Key:
ARPE-19 cells [1] = assay: Immunoblotting analysis of treated ARPE-19 cells; assay type: cell-based
Procedure: Cells were treated with the autophagy inhibitor Bafilomycin A1 (Sigma, Saint Louis, MO, USA) at 75 nM or DUSP6 inhibitor BCI (Sigma, Saint Louis, MO, USA) at 1.25 μM or 2.5 μM for 6 h at 37° C. Proteins were collected after treatment for further study. C57BL/6N mice were sacrificed and their eyes were collected. The excess muscle tissue outside the sclera was removed and then a needle was used to make a hole in the cornea then remove the whole cornea. Next, we eliminated the lens and retina, and finally lysed the remaining tissue RIPA buffer (10× Merck Millipore, Temecula, CA, USA) containing with 1% protease inhibitor. Meanwhile, in vitro ARPE-19 cells were collected and lysed with RIPA buffer containing with 1% protease inhibitor. Subsequently, cell lysates were centrifuged for 10 min at 4° C. and the supernatants were collected. Next, the protein concentrations were measured via the BCA Protein Quantification Kit. An equal weight of total protein was separated by electrophoresis on SDS/PAGE. After the proteins were transferred onto polyvinylidene difluoride (PVDF) membranes (Millipore, Bedford, MA, USA), the membranes were incubated with blocking buffer (1×TBST and 5% skim milk) for 1 h at room temperature. After the blocking step, the membranes were incubated with the following primary antibodies at 4° C. overnight: DUSP6 (Abcam, Cambridge, UK), Phospho-ERK1/2 (Cell Signaling, Danvers, MA, USA), ERK1/2 (Cell Signaling, Danvers, MA, USA), LC3B (Novus, Centennial, CO, USA), SQSTM1/p62 (Abcam, Cambridge, UK), LAMP2 (Abcam, Cambridge, UK), Beclin-1 (Cell Signaling, Danvers, MA, USA), and Bactin (Sigma, Saint Louis, MO, USA). Next, membranes were washed three times with TBST and incubated with HRP-conjugated secondary antibodies including Goat anti-mouse IgG (Invitrogen, Carlsbad, CA, USA) and Goat anti-rabbit IgG (Invitrogen, Carlsbad, CA, USA) for 1 h at RT. The antigen-antibody complexes were detected by an enhanced chemiluminescence (ECL) substrate kit (Bioman, Millipore, Bedford, MA, USA). Bands were analyzed and quantified by the ImageJ (NIH, Bethesda, MD, USA) analysis software.

ARPE-19 cells [2] = assay: Live imaging of GFP-LC3-RFP-LC3AG reporter in ARPE-19 cells; assay type: cell-based; details: ARPE-19, BCI under NaIO3-induced oxidative stress
Text: Furthermore, to estimate the autophagic flux in BCI-treated ARPE-19 cells, we introduced the GFP-LC3-RFP-LC3AG gene into ARPE-19 cells and monitored live images taken after BCI treatment.

ARPE-19 cells [3] = assay: qRT-PCR of p62 mRNA in ARPE-19 cells; assay type: cell-based; details: ARPE-19 co-treated with BCI and NaIO3 for 6 hours
Procedure: The cDNA was diluted to 200 ng/μL with sterile water and mixed with SYBR PCR Master Mix and primers. Amplification reaction was performed in a thermal cycler according to the manufacturer's instructions. mRNA abundance was quantified using the threshold cycle method. The mRNA expression of GAPDH was used as an internal control for normalization.

ARPE-19 cells [4] = assay: Immunocytochemistry / immunofluorescence staining of ARPE-19 cells; assay type: cell-based
Procedure: In vitro, the cells were seeded in 24-well plates at a density of 2×10^5 per well and incubated at 37° C. with 5% CO2 for 24 h. […] After rinsing three times with PBS, the cells were permeabilized and blocked with a blocking solution (0.3% BSA and 0.1% Triton X-100 in PBS) at room temperature for 1 h. After blocking, cells were incubated with primary antibodies overnight at 4° C. The primary antibodies include DUSP6 (Abcam, Cambridge, UK), Phospho-ERK1/2 (Cell Signaling, Danvers, MA, USA), LC3B (Novus, Centennial, CO, USA), and SQSTM1/p62 (Abcam, Cambridge, UK). After incubation, cells were washed three times with PBST (0.1% Triton X-100 in PBS). Secondary antibodies (1:700) were applied for 3 h at room temperature. The secondary antibodies include IgG Alexa 488 goat anti-rabbit IgG and Alexa 594 goat anti-mouse IgG. Nuclei were stained with DAPI (1:1000) for 10 min at 4° C. and slides were observed by a light microscope (Olympus America, Melville, NY, USA). In vivo, the sample slices were pretreated with bleaching solution (1% NaH2PO4 and 2.5% H2O2) overnight at room temperature. Next, the primary antibodies, including DUSP6, Phospho-ERK1/2, LC3B, SQSTM1/p62, and RPE65, were incubated with the sample slices overnight at 4° C. After incubation, the samples were washed three times with PBST. Tests with secondary antibodies (1:700) were conducted for 1 h at room temperature. The secondary antibodies included IgG Alexa 488 goat anti-rabbit IgG and Alexa 594 goat anti-mouse IgG. After treating them with mounting solution, the slides were observed by a fluorescence microscope (Olympus America, Melville, NY, USA).

C57BL/6N mice = assay: DUSP6 inhibitor (BCI) treatment in NaIO3-treated mice; assay type: in vivo
Text: Retina samples were fixed with 4% paraformaldehyde (Sigma, Saint Louis, MO, USA) overnight, followed by 1×PBS. The methodology used for fixation, dehydration, clearing, infiltration, and embedding was developed according to that of Bio-Check Laboratories. […] The morphology of the retina was observed using a light microscope (Olympus America, Melville, NY, USA). Next, the thicknesses of the retina, defined as the distance between the inner limiting membrane, Bruch's membrane, and the outer nuclear layer (ONL), were measured by Image J (NIH, Bethesda, Maryland, USA). In vitro, the cells were seeded in 24-well plates at a density of 2×10^5 per well and incubated at 37° C. with 5% CO2 for 24 h. […] After rinsing three times with PBS, the cells were permeabilized and blocked with a blocking solution (0.3% BSA and 0.1% Triton X-100 in PBS) at room temperature for 1 h. After blocking, cells were incubated with primary antibodies overnight at 4° C. The primary antibodies include DUSP6 (Abcam, Cambridge, UK), Phospho-ERK1/2 (Cell Signaling, Danvers, MA, USA), LC3B (Novus, Centennial, CO, USA), and SQSTM1/p62 (Abcam, Cambridge, UK). After incubation, cells were washed three times with PBST (0.1% Triton X-100 in PBS). Secondary antibodies (1:700) were applied for 3 h at room temperature. The secondary antibodies include IgG Alexa 488 goat anti-rabbit IgG and Alexa 594 goat anti-mouse IgG. Nuclei were stained with DAPI (1:1000) for 10 min at 4° C. and slides were observed by a light microscope (Olympus America, Melville, NY, USA). In vivo, the sample slices were pretreated with bleaching solution (1% NaH2PO4 and 2.5% H2O2) overnight at room temperature. Next, the primary antibodies, including DUSP6, Phospho-ERK1/2, LC3B, SQSTM1/p62, and RPE65, were incubated with the sample slices overnight at 4° C. After incubation, the samples were washed three times with PBST. Tests with secondary antibodies (1:700) were conducted for 1 h at room temperature. The secondary antibodies included IgG Alexa 488 goat anti-rabbit IgG and Alexa 594 goat anti-mouse IgG. After treating them with mounting solution, the slides were observed by a fluorescence microscope (Olympus America, Melville, NY, USA). […] The structure of the retina was analyzed by real-time images and H & E staining. Proteins were collected from retina for further study.

[5] = NaIO3-treated ARPE-19 cells with Baf-A1 75 nM
[6] = NaIO3 30 mg/kg i.p. then BCI 0.5 mg/kg intravitreal

SMILES | LC3B-II expression (ARPE-19 cells [1]; [5]) | p62 expression levels (ARPE-19 cells [1]; [5]) | p-ERK/ERK ratio (ERK activity) (ARPE-19 cells [1]; NaIO3-treated ARPE-19, BCI 1.25 and 2.5 μM, 6 h) | autophagic markers (immunoblotting) (ARPE-19 cells [1]; NaIO3-treated ARPE-19, BCI 1.25 and 2.5 μM, hydrochloride) | GFP / RFP LC3 signal (late-stage autophagy) (ARPE-19 cells [2]) | p62 mRNA level (ARPE-19 cells [3]) | autophagosomes (fluorescence images) (ARPE-19 cells [4]; ARPE-19, BCI 1.25 μM, oxidative conditions) | speckles of p-ERK (ARPE-19 cells [4]; ARPE-19, BCI with or without NaIO3) | perinuclear p62 punctate (ARPE-19 cells [4]; ARPE-19 co-treated with NaIO3 and BCI) | cell-cell junction (tight junction marker ZO-1) (ARPE-19 cells [4]; RPE cells, NaIO3 vs control, BCI co-treatment) | ONL disorganization (H & E) (C57BL/6N mice; BCI 0.5 mg/kg intravitreal in presence of NaIO3-induced oxidative stress) | ONL thickness (C57BL/6N mice; BCI group vs NaIO3 group) | melanin deposition on the retina (C57BL/6N mice; BCI group vs mice treated with NaIO3 only) | co-localization of LC3B and p62 between the ONL and RPE layers (C57BL/6N mice; [6]) | phosphorylated ERK speckles around the ONL and RPE layers (C57BL/6N mice; [6]) | accumulation of p62 in mouse retinas (C57BL/6N mice; mouse retinas treated with BCI)
CO/C1=C\C(C)=C\[C@@H](C)[C@@H](O)[C@@H](C)C/C(C)=C/C=C/[C@H](OC)[C@@H]([C@@H](C)[C@@H](O)[C@H](C)[C@@]2(O)C[C@@H](O)[C@H](C)[C@@H](C(C)C)O2)OC1=O [Baf-A1, Bafilomycin A1] | increase in LC3B-II expression in a dose-dependent manner | remained unchanged | – | – | – | – | – | – | – | – | – | – | – | – | – | –
Cl.O=C1/C(=C/c2ccccc2)C(NC2CCCCC2)c2ccccc21 (mixture of isomers) [BCI, (E/Z)-BCI hydrochloride] | – | – | significantly increased in NaIO3-treated cells after BCI treatment in a dose-dependent manner | upregulation of autophagic markers upon BCI treatment in a dose-dependent manner; also recorded: also upregulated | GFP-positive signal being shifted to an RFP-positive signal | upregulated | aggregation of autophagosomes | increased after BCI treatment, despite the presence or absence of NaIO3 | significantly upregulated | rescue the cell-cell junction | alleviated | restored the ONL thickness | significantly reduced | excessive co-localization | dramatically enhanced | significantly decreased
